Earlier results on two molecules are cited in patent US20090022799A1, “COMPOSITIONS THAT CONTAIN BETA-GLUCAN TO BE USED FOR THE PREVENTION AND TREATMENT OF DISEASE AND METHODS FOR THEIR USE” (priority 2006, published 2009).

The conditions of data set [1]: forms a suspension in aqueous solution.
For data set [2] the following is noted: human clinical trials.
The conditions of data set [3]: β-Glucan particles.

Counter-ions that a name gives are not always drawn.

`[H]/N=C(\N/C(=N/[H])NCCCCCCNC(=N)NC(=N)Nc1ccc(Cl)cc1)Nc1ccc(Cl)cc1` [Chlorhexidine hydrochloride, chlorhexidine hydrochloride, reference compound]: the solubility in water result in data set [1] is “limited solubility”.
In the case of Beta-(1→3)-d-Glucan [β-Glucan], the safety and tolerability result in data set [2] is “safe and well-tolerated”. Moreover, the median particle size in data set [3] is given as 3.7-4.6 μm. Also, the solubility in water result in data set [1] was “insoluble”.
